From publication PMC6377466 (Proceedings of the National Academy of Sciences of the …, 2019)

Key:
KRAS166^G12V = molecular target: T1, KRAS166^G12V (Homo sapiens, UniProt P01116, G12V); assay: SPR screen and waterLOGSY NMR; assay type: binding
T1 construct: gene KRAS; KRAS166

NRAS^Q61H = molecular target: T2, NRAS^Q61H (Homo sapiens, UniProt P01111, Q61H); assay: cell BRET RAS-effector interaction assay, dose response […]; assay type: cell-based
T2 construct: full-length (RLuc8 fusion); with CRAF

HRAS^G12V = molecular target: T3, HRAS^G12V (Homo sapiens, UniProt P01112, G12V); assay: as above; assay type: cell-based
T3 construct: full-length (RLuc8 fusion); with CRAF

Compound | SPR screen and waterLOGSY NMR (KRAS166^G12V) | cell BRET RAS-effector interaction assay, dose response 5-20 μM (NRAS^Q61H) | cell BRET RAS-effector interaction assay, dose response 5-20 μM (HRAS^G12V)
COc1cccc(-c2cccc(CC3(C(=O)NCCCn4ccnc4)CCOCC3)c2)c1 [PPIN-2] | PPIN-1 and -2 were confirmed to bind to KRAS166^G12V |  | 
CCCN1CCN(C(=O)c2c[nH]cn2)CC(Cc2ccc(-c3ccccc3)cc2)C1=O (stereo not shown) [PPIN-1] | PPIN-1 and -2 were confirmed to bind to KRAS166^G12V |  | 
COc1cccc(-c2ccc(Nc3ccc(CN(C)C)cc3)c(OC)c2F)c1 [Ch-3] |  | Ch-3 interferes with NRAS and HRAS isoforms using the BRET biosensor assay | Ch-3 interferes with NRAS and HRAS isoforms using the BRET biosensor assay
